Assay results taken from patent US9890147B2 (BAYER PHARMA AKTIENGESELLSCHAFT, priority 2012, dated 2018).

Experiments:
[1] = molecular target: T1, BRD4 (BD1) (Homo sapiens, UniProt O60885); assay: Binding assay BRD4/acetylated peptide H4 (TR-FRET protein-protein interaction assay)
T1 construct: with relatively long constructs also being possible, preferably amino acids 44-168; made in house; host or cells: E. coli
Method in brief: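 Displacement of biotin-Ac-H4 peptide from His6-tagged BRD4(BD1), final usually 10 nM, read as Eu-streptavidin to anti-His-XL665 TR-FRET (665/620 nm). Compounds tested at 11 doses up to 20 μM in duplicate, pH 7.5 HEPES, 22 °C then 4 °C incubation; IC50 by 4-parameter regression.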

[2] = tested on: MOLM-13 cells; assay: Cell proliferation assay (alamarBlue), MOLM-13; format: cell-based; details: Homo sapiens, 96 hours incubation, inhibition of cell proliferation
Method in brief: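 IC50 = concentration giving 50% growth inhibition relative to buffer-treated cells, after subtracting baseline fluorescence taken before dosing. Compound applied at 1E-5 to 1E-8 M for 96 h at 37 °C in RPMI1640 with 10% FCS; alamarBlue signal at 530/590 nm.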

[3] = tested on: MV4-11 cells; assay: Cell proliferation assay (alamarBlue), MV4-11; format: cell-based; details: Homo sapiens, 72 hours incubation, inhibition of cell proliferation
Procedure: (§1) In accordance with the invention, the capability of the substances to inhibit cell proliferation was determined Cell viability was determined using the alamarBlue® reagent (Invitrogen) in a Victor X3 Multilabel Reader (Perkin Elmer). The excitation wavelength was 530 nm and the emission wavelenth […].
The MV4-11 cells (ATCC, CRL 9591) were sown at a concentration of 5000 cells/well in 100 μl growth medium (RPMI1640, 10% FCS) on 96-well microtitre plates.
(§2) After an overnight incubation at 37° C., the fluorescence values (CI values) were determined. The plates were then treated with various substance dilutions (1E-5 M, 3E-6 M, 1E-6M, 3E-7 M, 1E-7 M, 3E-8 M, 1E-8 M) and incubated at 37° C. for 72 (MV4-11-, LOX-IMVI cells), 96 (MOLM-13-, B16F10-, MDA-MB-431-, Caov-3 cells), 120 (MOLP-8-, KMS-12-PE cells) or 168 (LAPC-4 cells) hours. The fluorescence values (CO values) were then determined. For the data analysis, the CI values were subtracted from the CO values and the results were compared between cells treated with different dilutions of the substance or with buffer solution only. These were used to calculate the IC 50 values (substance concentration required for 50% inhibition of cell proliferation).

[4] = tested on: LOX-IMVI cells; assay: Cell proliferation assay (alamarBlue), LOX-IMVI; format: cell-based; details: Homo sapiens, 72 hours incubation, inhibition of cell proliferation
Procedure: as §1
The LOX-IMVI cells (NCI-60) were sown at a concentration of 1000 cells/well in 100 μl growth medium (RPMI1640, 10% FCS) on 96-well microtitre plates.
as §2

[5] = tested on: MOLP-8 cells; assay: Cell proliferation assay (alamarBlue), MOLP-8; format: cell-based; details: Homo sapiens, 120 hours incubation, inhibition of cell proliferation
Procedure: as §1
The MOLP-8 cells (DSMZ, ACC 569) were sown at a concentration of 4000 cells/well in 100 μl growth medium (RPMI1640, 20% FCS) on 96-well microtitre plates.
as §2

[6] = tested on: KMS-12-PE cells; assay: Cell proliferation assay (alamarBlue), KMS-12-PE; format: cell-based; details: Homo sapiens, 120 hours incubation, inhibition of cell proliferation
Procedure: as §1
The KMS-12-PE cells (DSMZ, ACC 606) were sown at a concentration of 4000 cells/well in 100 μl growth medium (RPMI1640, 20% FCS) on 96-well microtitre plates.
as §2

[7] = tested on: Caov-3 cells; assay: Cell proliferation assay (alamarBlue), Caov-3; format: cell-based; details: Homo sapiens; inhibition of cell proliferation, Caov-3 (ovarian carcinoma), 96 hours
Procedure: as §1
The MDA-MB-231 cells (DSMZ, ACC 732) were sown at a concentration of 4000 cells/well in 100 μl growth medium (DMEM/Ham's F12 medium, 10% FCS) on 96-well microtitre plates. The Caov-3 cells (ATCC, HTB-75) were sown at a concentration of 2000 cells/well in 100 μl growth medium (MEM Earle's medium, 10% FCS) on 96-well microtitre plates.
as §2

Row | SMILES | IC50 [1] [nM] | IC50 [2] [nM] | IC50 [3] [nM] | IC50 [4] [nM] | IC50 [5] [nM] | IC50 [6] [nM] | IC50 [7] [nM]
1 | CNC(=O)N1N=C(c2ccc(-n3nc(-c4ccccc4)cc3C)cc2)c2cc(OC)c(OC)cc2CC1C (racemic) [Example 147, (±)-7,8-Dimethoxy-N,4-dimethyl-1-[4-(5-methyl-3-phenyl-1H-pyrazol-1-yl)phenyl]-4,5-dihydro-3H-2,3-benzodiazepine-3-carboxamide] | 30 | 70 | 50 | 180 | 80 | 60 | 180
2 | CNC(=O)N1N=C(c2ccc(-n3nc(-c4ccccc4)cc3C3CC3)cc2)c2cc(OC)c(OC)cc2CC1C (racemic) [Example 148, (±)-1-[4-(5-cyclopropyl-3-phenyl-1H-pyrazol-1-yl)phenyl]-7,8-dimethoxy-N,4-dimethyl-4,5-dihydro-3H-2,3-benzodiazepine-3-carboxamide] | 40 | 80 | 70 | 250 | 90 | 80 | 300
3 | CNC(=O)N1N=C(c2ccc(N3CCN(C(=O)C(F)(F)F)CC3)cc2)c2cc(OC)c(OC)cc2CC1C (racemic) [Example 133, (±)-7,8-dimethoxy-N,4-dimethyl-1-{4-[4-(trifluoroacetyl)piperazin-1-yl]phenyl}-4,5-dihydro-3H-2,3-benzodiazepine-3-carboxamide] | 50 | 180 | 80 | 170 | 70 | 80 | 180
4 | CNC(=O)N1N=C(c2ccc(N3CCNCC3)cc2)c2cc(OC)c(OC)cc2CC1C (racemic) [Example 131, (±)-7,8-dimethoxy-N,4-dimethyl-1-[4-(piperazin-1-yl)phenyl]-4,5-dihydro-3H-2,3-benzodiazepine-3-carboxamide] | 50 | 110 | 40 | 70 | 30 | 30 | 50
5 | CNC(=O)N1N=C(c2ccc(N3CCN(C(C)=O)CC3)cc2)c2cc(OC)c(OC)cc2CC1C (racemic) [Example 132, (±)-1-[4-(4-acetylpiperazin-1-yl)phenyl]-7,8-dimethoxy-N,4-dimethyl-4,5-dihydro-3H-2,3-benzodiazepine-3-carboxamide] | 30 | 200 | 130 | 420 | 120 | 110 | 320
6 | CNC(=O)N1N=C(c2ccc(N3CCOCC3)cc2)c2cc(OC)c(OC)cc2C[C@@H]1C [Example 7.2, (4S)-7,8-dimethoxy-N,4-dimethyl-1-[4-(morpholin-4-yl)phenyl]-4,5-dihydro-3H-2,3-benzodiazepine-3-carboxamide] | 30 | 100 | 60 | 190 | 50 | 50 | –
7 | CNC(=O)N1N=C(c2ccc(N3CCN(C)CC3)cc2)c2cc(OC)c(OC)cc2CC1C (racemic) [Example 127, (±)-7,8-dimethoxy-N,4-dimethyl-1-[4-(4-methylpiperazin-1-yl)phenyl]-4,5-dihydro-3H-2,3-benzodiazepine-3-carboxamide] | 80 | 180 | 120 | 250 | 90 | 90 | 240
8 | CNC(=O)N1N=C(c2ccc(N3CC(F)C3)cc2)c2cc(OC)c(OC)cc2C[C@@H]1C [Example 129.2, (4S)-1-[4-(3-fluoroazetidin-1-yl)phenyl]-7,8-dimethoxy-N,4-dimethyl-4,5-dihydro-3H-2,3-benzodiazepine-3-carboxamide] | 20 | 150 | – | – | 80 | – | –
9 | CNC(=O)N1N=C(c2ccc(Cl)cc2)c2cc(OC(F)(F)F)c(Cl)cc2CC1C (single isomer, unassigned) [Example 15.1, 7-Chloro-1-(4-chlorophenyl)-N,4-dimethyl-8-(trifluoromethoxy)-4,5-dihydro-3H-2,3-benzodiazepine-3-carboxamide] | 450 | 3050 | – | – | – | – | –

Further lines, with some results ahead:

Row | IC50 [1] [nM] | IC50 [2] [nM] | IC50 [3] [nM] | SMILES | IC50 [4] [nM] | IC50 [5] [nM] | IC50 [6] [nM] | IC50 [7] [nM]
10 | 1160 | > 10000 | – | CNC(=O)N1N=C(c2ccc(-c3sc(C)nc3C)cc2)c2cc(OC)c(OC)cc2C[C@H]1C (single isomer, unassigned) [Example 46.2] | – | 9470 | – | –
11 | 310 | 3240 | – | CNC(=O)N1N=C(c2ccc(Cl)cc2)c2cc(OCc3cccc(C)n3)ccc2CC1C (racemic) [Example 167] | – | 2950 | – | –
12 | 40 | 250 | 70 | CNC(=O)N1N=C(c2ccc(-c3cccc(C(=O)N4CCCC4)c3)cc2)c2cc(OC)c(OC)cc2CC1C (racemic) [Example 96, (±)-7,8-dimethoxy-N,4-dimethyl-1-[3′-(pyrrolidin-1-ylcarbonyl)biphenyl-4-yl]-4,5-dihydro-3H-2,3-benzodiazepine-3-carboxamide] | 220 | 90 | 70 | 170
13 | 210 | 90 | 190 | CNC(=O)N1N=C(c2ccc(-c3c(C)noc3C)cc2)c2cc(Cl)c(OC)cc2CC1C (racemic) [Example 157, (±)-8-chloro-1-[4-(3,5-dimethylisoxazol-4-yl)-phenyl]-7-methoxy-N,4-dimethyl-4,5-dihydro-3H-2,3-benzodiazepine-3-carboxamide] | 580 | 120 | 240 | 420
14 | 30 | 240 | – | CNC(=O)N1N=C(c2ccc(-c3c(C)noc3C)cc2)c2cc(OCCCN3CCOCC3)ccc2CC1C (racemic) [Example 169, (±)-1-[4-(3,5-Dimethylisoxazol-4-yl)phenyl]-N,4-dimethyl-8-[3-(morpholin-4-yl)propoxy]-4,5-dihydro-3H-2,3-benzodiazepine-3-carboxamide] | 410 | 120 | 120 | 370
15 | 30 | 110 | 50 | CNC(=O)N1N=C(c2ccc(-c3c(C)nn(C)c3C)cc2)c2cc(OC)c(OC)cc2C[C@@H]1C [Example 51.2, (4S)-7,8-dimethoxy-N,4-dimethyl-1-[4-(1,3,5-trimethyl-1H-pyrazol-4-yl)phenyl]-4,5-dihydro-3H-2,3-benzodiazepine-3-carboxamide] | 170 | 50 | 40 | 130
16 | 30 | 230 | – | CNC(=O)N1N=C(c2ccc(N3CCC3)cc2)c2cc(OC)c(OC)cc2CC1C (racemic) [Example 128, (±)-1-[4-(azetidin-1-yl)phenyl]-7,8-dimethoxy-N,4-dimethyl-4,5-dihydro-3H-2,3-benzodiazepine-3-carboxamide] | 390 | 100 | 100 | 320
17 | 110 | 390 | 220 | CNC(=O)N1N=C(c2ccc(-c3c(C)noc3C)cc2)c2cc(O)ccc2CC1C (racemic) [Example 168, (±)-1-[4-(3,5-Dimethylisoxazol-4-yl)phenyl]-8-hydroxy-N,4-dimethyl-4,5-dihydro-3H-2,3-benzodiazepine-3-carboxamide] | – | – | – | –
18 | 250 | 2340 | – | CNC(=O)N1N=C(c2ccc(Cl)cc2)c2cc(-n3nc(C)cc3C)ccc2CC1C (racemic) [Example 174, (±)-1-(4-Chlorophenyl)-8-(3,5-dimethyl-1H-pyrazol-1-yl)-N,4-dimethyl-4,5-dihydro-3H-2,3-benzodiazepine-3-carboxamide] | – | 2030 | – | –
